Results on one substance are retold here after paper PMC5027844 (Cancer cell, 2016).

For this experiment, the target named is ARF6 (Homo sapiens, UniProt P62330). Put plainly: fluorometric nucleotide exchange assay. It counts as biochemical.
ARF6, sequence (P62330 2-175): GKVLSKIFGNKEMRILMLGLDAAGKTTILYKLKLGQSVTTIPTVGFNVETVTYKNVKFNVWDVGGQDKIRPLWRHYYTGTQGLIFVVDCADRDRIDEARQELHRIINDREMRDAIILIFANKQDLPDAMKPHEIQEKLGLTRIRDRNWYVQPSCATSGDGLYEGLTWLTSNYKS

For the substance NAV-2729, the IC50 is 1000 nM.
